In patent US10322187B2, “Reduced toxicity molecular conjugates of anti-fungal agents” (Lehigh University, priority 2015, dated 2019):
≈ marks a conversion by molar mass, not a printed value. Like-named read-outs stand apart in the source and are kept apart here.

Experiments:
C. gatti = assay: Antifungal activities, MIC/MFC; assay type: cell-based; settings: C. gatti; for MIC: Table 2, 4th value in brackets, read-out: minimum inhibitory concentration (MIC)
Experimental: (§1) A similar sequence of reactions was carried out using lysine dicholamide in place of cholic acid afforded VJ-1147 of Table 2. To assess the antifungal properties of the diwalled VJ-1138 (Table 2) and 2a of Table 3, their in vitro activities were examined against four clinically relevant microbes, i.e., C. albicans, C. glabrata, C. neoformans, and C. gatti (Table 4).
(§2) Minimum inhibitory concentrations (MIC) and minimum fungicidal concentrations (MFC) are the lowest concentrations that are required for completely inhibiting growth, and killing at least 99% of the fungi, respectively.
(§3) The above molecules were tested for antifungal activity. Minimum inhibitory concentrations (MIC) and minimum fungicidal concentrations (MFC) are the lowest concentrations that are required for completely inhibiting growth, and killing at least 99% of the fungi, respectively. As is apparent from Table 4 below, there is a general trend; i.e., increased antifungal activity is observed as the length of the hydrocarbon chain that separates the facial amphiphile from the Amphotericin B moiety is decreased.

C. glabrata = assay: Antifungal activities, MIC/MFC; assay type: cell-based; settings: C. glabrata; for MIC: Table 2, 2nd value in brackets, read-out: minimum inhibitory concentration (MIC)
Experimental: as §1, §2, §3

C. neoformans = assay: Antifungal activities, MIC/MFC; assay type: cell-based; settings: C. neoformans; for MIC: Table 2, 3rd value in brackets, read-out: minimum inhibitory concentration (MIC)
Experimental: as §1, §2, §3

C. albicans = assay: Antifungal activities, MIC/MFC; assay type: cell-based; settings: C. albicans; for MIC: Table 2, 1st value in brackets, read-out: minimum inhibitory concentration (MIC)
Experimental: as §1, §2, §3

Cryptococcus neoformans = assay: Cryptococcosis mouse model, brain and lung tissue burden; assay type: in vivo, mice; settings: after intravenous administration
Experimental: Cryptococcosis mice are infected via tail vein injection of 5×10^4 C. neoformans cells. Inocula are verified by quantitative culture. Animals are identified by temporary ink marking, assigned to groups of 10 mice. Test compounds will be dosed starting on the day of infection. Initial studies will employ i.v., i.p. or oral (gavage) dosing (depending on the compound and the vehicle). Antifungal compounds are given for a period of 7 days. […] On day 8, the lung and brain are evaluated by quantitative culture per gram of tissue, by weighing organs and culturing serially diluted homogenates. These tissue burden studies permit detection of drug efficacy that may not be evident by using a survival endpoint.
The mice were then sacrificed 7 days later for quantitative culture of brain and lung, with cryptococcal cells per gram tissue being expressed as logarithmic values (log 10). Mean values for each group were compared using the t-test.

sheep red blood cells = assay: Hemolysis measurements, release of hemoglobin; assay type: cell-based; settings: up to concentrations of 500 μM; 37° C. in PBS, pH 7.4
Experimental: Sheep Red Blood Cells, 10%, in saline (Innovative Research, Novi, Mich.), were diluted in saline (pH 7.4) to a concentration of 4%, which corresponds to 4×10^7 cells/mL. All measurements were carried out in duplicate. Solutions of Amphotericin B (Sigma-Aldrich) were prepared by adding 10 μL of a DMSO solution containing a given concentration of the antibiotic (i.e., ranging from 0.2 mM to 50 mM) to 490 μL of PBS. After the resulting solution was vortex mixed for 30 seconds (s) it was incubated at 37° C. for 15 min. The resulting solution of antibiotic (500 μL) was then mixed with 500 μL of the 4% erythrocyte dispersion at 37° C. in a 1 mL plastic centrifuge vial to give a dispersion that was vortex mixed at slow rate for 5 s. After 1 h of incubation at 37° C., all samples were centrifuged (1500 g, Eppendorf centrifuge 5415C, 5000 rpm) at rt for 5 min. The supernatant (˜0.7 mL) from each plastic vial was carefully separated from sediment using a disposable glass pipette and quickly transferred to test tube. A volume of 50 μL of this supernatant was then transferred to a UV cell containing 500 μL of PBS that was maintained at 37° C. The UV spectrum was then scanned (450-650 nm) and the absorbance at 575 nm used to determine the extent of hemolysis. The extent of 0% and 100% of hemolysis was obtained from A575 values of experiments that were run in absence of AmphB (control, [A575,]o) and in presence, 100 μM AmphB ([A575]max), respectively.

Row | Compound | MIC (C. gatti) [µM] | MIC (C. glabrata) [µM] | MIC (C. neoformans) [µM] | MIC (C. albicans) [µM] | also measured
1 | CC1OC(O[C@H]2/C=C/C=C/C=C/C=C/C=C/C=C/C=C/[C@H](C)[C@@H](O)[C@@H](C)[C@H](C)OC(=O)C[C@H](O)C[C@H](O)CC[C@@H](O)[C@H](O)C[C@H](O)C[C@]3(O)C[C@H](O)[C@@H](C(=O)NCCSSCCC(=O)N(CCCCNC(=O)C(CCCCNC(=O)CC[C@@H](C)C4CCC5C6C(OS(=O)(=O)[O-])CC7CC(OS(=O)(=O)[O-])CCC7(C)C6CC(OS(=O)(=O)[O-])C54C)NC(=O)CC[C@@H](C)C4CCC5C6C(OS(=O)(=O)[O-])CC7CC(OS(=O)(=O)[O-])CCC7(C)C6CC(OS(=O)(=O)[O-])C54C)CCCNC(=O)C(CCCCNC(=O)CC[C@@H](C)C4CCC5C6C(OS(=O)(=O)[O-])CC7CC(OS(=O)(=O)[O-])CCC7(C)C6CC(OS(=O)(=O)[O-])C54C)NC(=O)CC[C@@H](C)C4CCC5C6C(OS(=O)(=O)[O-])CC7CC(OS(=O)(=O)[O-])CCC7(C)C6CC(OS(=O)(=O)[O-])C54C)[C@H](C2)O3)C(O)C(N)C1O.[Na+].[Na+].[Na+].[Na+].[Na+].[Na+].[Na+].[Na+].[Na+].[Na+].[Na+].[Na+] (stereo partly drawn) [compound 10] | – | – | – | – | minimum inhibitory concentration (MIC in μM) relative to AmphB (C. gatti; 4th value in brackets): > 426 µM; minimum inhibitory concentration (MIC in μM) relative to AmphB (C. glabrata; 2nd value in brackets): > 426 µM; minimum inhibitory concentration (MIC in μM) relative to AmphB (C. neoformans; 3rd value in brackets): > 426 µM; minimum inhibitory concentration (MIC in μM) relative to AmphB (C. albicans; 1st value in brackets): > 426 µM; activity in brain and lung tissue (Cryptococcus neoformans): negligible activity
2 | CC1OC(O[C@H]2/C=C/C=C/C=C/C=C/C=C/C=C/C=C/[C@H](C)[C@@H](O)[C@@H](C)[C@H](C)OC(=O)C[C@H](O)C[C@H](O)CC[C@@H](O)[C@H](O)C[C@H](O)C[C@]3(O)C[C@H](O)[C@@H](C(=O)NCCCCNC(=O)C(CCCCNC(=O)CC[C@@H](C)C4CCC5C6C(O)CC7CC(OC(=O)NCC(O)C(O)C(O)C(O)CO)CCC7(C)C6CC(O)C54C)NC(=O)CC[C@@H](C)C4CCC5C6C(O)CC7CC(OC(=O)NCC(O)C(O)C(O)C(O)CO)CCC7(C)C6CC(O)C54C)[C@H](C2)O3)C(O)C(N)C1O (stereo partly drawn) [YM-13] | 4 (≈ 9.27 µg/mL) | 8 (≈ 18.5 µg/mL) | 2 (≈ 4.64 µg/mL) | 8 (≈ 18.5 µg/mL) | –
3 | CC1OC(O[C@H]2/C=C/C=C/C=C/C=C/C=C/C=C/C=C/[C@H](C)[C@@H](O)[C@@H](C)[C@H](C)OC(=O)C[C@H](O)C[C@H](O)CC[C@@H](O)[C@H](O)C[C@H](O)C[C@]3(O)C[C@H](O)[C@@H](C(=O)NCCCCCCCC(=O)N(CCCCNC(=O)CC[C@@H](C)C4CCC5C6C(OC(=O)NCCCCN)CC7CC(OC(=O)NCCCCN)CCC7(C)C6CC(OC(=O)NCCCCN)C54C)CCCNC(=O)CC[C@@H](C)C4CCC5C6C(OC(=O)NCCCCN)CC7CC(OC(=O)NCCCCN)CCC7(C)C6CC(OC(=O)NCCCCN)C54C)[C@H](C2)O3)C(O)C(N)C1O (stereo partly drawn) [VJ-1147] | 8 (≈ 21.3 µg/mL) | 16 (≈ 42.5 µg/mL) | 8 (≈ 21.3 µg/mL) | 8 (≈ 21.3 µg/mL) | –
4 | CC1OC(O[C@H]2/C=C/C=C/C=C/C=C/C=C/C=C/C=C/[C@H](C)[C@@H](O)[C@@H](C)[C@H](C)OC(=O)C[C@H](O)C[C@H](O)CC[C@@H](O)[C@H](O)C[C@H](O)C[C@]3(O)C[C@H](O)[C@@H](C(=O)NCCCCNC(=O)C(CCCCNC(=O)CC[C@@H](C)C4CCC5C6C(O)CC7CC(O)CCC7(C)C6CC(O)C54C)NC(=O)CC[C@@H](C)C4CCC5C6C(O)CC7CC(O)CCC7(C)C6CC(O)C54C)[C@H](C2)O3)C(O)C(N)C1O (stereo partly drawn) [YM-15] | 4 (≈ 7.61 µg/mL) | – | – | – | MIC (C. glabrata; Nakaseomyces glabratus): > 16 µM; MIC (C. neoformans; Cryptococcus neoformans): > 16 µM; MIC (C. albicans; Candida albicans): > 16 µM
5 | CC1OC(O[C@H]2/C=C/C=C/C=C/C=C/C=C/C=C/C=C/[C@H](C)[C@@H](O)[C@@H](C)[C@H](C)OC(=O)C[C@H](O)C[C@H](O)CC[C@@H](O)[C@H](O)C[C@H](O)C[C@]3(O)C[C@H](O)[C@@H](C(=O)NCCCCNC(=O)C(CCCCNC(=O)CC[C@@H](C)C4CCC5C6C(O)CC7CC(OC(=O)NCCCCN)CCC7(C)C6CC(O)C54C)NC(=O)CC[C@@H](C)C4CCC5C6C(O)CC7CC(OC(=O)NCCCCN)CCC7(C)C6CC(O)C54C)[C@H](C2)O3)C(O)C(N)C1O (stereo partly drawn) [YM-18] | 2 (≈ 4.26 µg/mL) | 16 (≈ 34.1 µg/mL) | 2 (≈ 4.26 µg/mL) | 2 (≈ 4.26 µg/mL) | –
6 | CC1OC(O[C@H]2/C=C/C=C/C=C/C=C/C=C/C=C/C=C/[C@H](C)[C@@H](O)[C@@H](C)[C@H](C)OC(=O)C[C@H](O)C[C@H](O)CC[C@@H](O)[C@H](O)C[C@H](O)C[C@]3(O)C[C@H](O)[C@@H](C(=O)NCCOCCOCCC(=O)N(CCCCNC(=O)CC[C@@H](C)C4CCC5C6C(O)CC7CC(O)CCC7(C)C6CC(O)C54C)CCCNC(=O)CC[C@@H](C)C4CCC5C6C(O)CC7CC(O)CCC7(C)C6CC(O)C54C)[C@H](C2)O3)C(O)C(N)C1O (stereo partly drawn) [YM-42] | > 16 | – | – | – | MIC (C. glabrata; Nakaseomyces glabratus): > 16 µM; MIC (C. neoformans; Cryptococcus neoformans): > 16 µM; MIC (C. albicans; Candida albicans): > 16 µM
7 | CC1OC(O[C@H]2/C=C/C=C/C=C/C=C/C=C/C=C/C=C/[C@H](C)[C@@H](O)[C@@H](C)[C@H](C)OC(=O)C[C@H](O)C[C@H](O)CC[C@@H](O)[C@H](O)C[C@H](O)C[C@]3(O)C[C@H](O)[C@@H](C(=O)NCCCCNC(=O)C(CCCCNC(=O)CC[C@@H](C)C4CCC5C6C(O)CC7CC(OC(=O)NCCN(C)C)CCC7(C)C6CC(O)C54C)NC(=O)CC[C@@H](C)C4CCC5C6C(O)CC7CC(OC(=O)NCCN(C)C)CCC7(C)C6CC(O)C54C)[C@H](C2)O3)C(O)C(N)C1O (stereo partly drawn) [YM-19] | 2 (≈ 4.26 µg/mL) | 32 (≈ 68.2 µg/mL) | 2 (≈ 4.26 µg/mL) | 4 (≈ 8.53 µg/mL) | –
8 | CC1OC(O[C@H]2/C=C/C=C/C=C/C=C/C=C/C=C/C=C/[C@H](C)[C@@H](O)[C@@H](C)[C@H](C)OC(=O)C[C@H](O)C[C@H](O)CC[C@@H](O)[C@H](O)C[C@H](O)C[C@]3(O)C[C@H](O)[C@@H](C(=O)NCCCCCCNC(=O)CC[C@@H](C)C4CCC5C6C(O)CC7CC(O)CCC7(C)C6CC(O)C54C)[C@H](C2)O3)C(O)C(N)C1O (stereo partly drawn) [YYM-72] | – | – | – | – | hemolytic activity (sheep red blood cells): negligible hemolytic activity
